Earlier results on 3 compounds are cited in paper PMC3544362 (Journal of medicinal chemistry, 2012).

The conditions of series [1]: rat, 60 min p.i., ref [32].
The conditions of series [2]: presumably rapid in vivo hydrolysis, ref [31]–[32].
The conditions of series [3]: Sprague-Dawley rats, 5 min p.i.; ref [12].
The mark [4] stands for this setting: Wistar rats, 60 min p.i., ref [16].

Each structure is given as a SMILES string. Where two headings read alike, the source gives them in different places.

Consider `CC(C)(C)n1ncc(OCc2ccc(COCC[18F])cc2)c(Cl)c1=O` [Flurpiridaz F 18], for which the heart uptake (Sprague-Dawley rats, 60 min p.i., ref [17], [46]) was 3.3 %ID/g and the heart uptake under setting [4] is 2.06 %ID/g. Moreover, the liver concentration reads like this: (Wistar rats, 10 min p.i., ref [16]) 0.99 %ID/g; under setting [4], 0.38 %ID/g.
On to `CCN(CC)c1ccc2c(-c3ccccc3C(=O)OCC[18F])c3ccc(=[N+](CC)CC)cc-3oc2c1` [[^18F]3, 2-[^18F]fluoroethyl rhodamine B], for which the Heart/blood in series [1] (tissue ratio) is listed as 25.8. In series [1], the Blood is 0.08 ± 0.03 %ID/g, the Bone is recorded as 0.45 ± 0.08 %ID/g, the Gut is reported as 2.40 ± 0.53 %ID/g and the Heart is 2.06 ± 0.61 %ID/g. In addition, in series [1], the Kidney is reported as 8.31 ± 0.81 %ID/g, the Liver was 0.89 ± 0.07 %ID/g, the Lung was 1.78 ± 0.65 %ID/g and the Muscle is given as 0.16 ± 0.04 %ID/g. Also, in series [1], the Skin is reported as 0.20 ± 0.02 %ID/g and the Spleen is 5.63 ± 0.78 %ID/g. Moreover, the “accumulation in mouse myocardium” value in series [2] is recorded as “did not accumulate in mouse myocardium”.
As to `Fc1ccc([P+](c2ccccc2)(c2ccccc2)c2ccccc2)cc1` [^18F-FTPP], in series [3], the heart uptake is given as 1.64 %ID/g and the heart-to-blood ratio is 11.
